# Measurements as given in US9593149B2, “Amylin and calcitonin receptor agonist” (Novo Nordisk A/S, priority 2014, dated 2017).
# Numbered stars: 1 amine (or outer) side, 2 acyl side, 3 side chain; on linkers, the order of the positions; unused ones are H or OH. Peptide text beside a SMILES is read from it. * marks the point of attachment. C18 diacid = O=C(O)CCCCCCCCCCCCCCCCC(=O)*; γGlu = O=C(O)[C@H](CCC(=O)[*:2])N[*:1]; C14 diacid = O=C(O)CCCCCCCCCCCCC(=O)*
# Experiment: Assay (IV) determination of solubility
# Type: physicochemical
# Description: Assay (IV)—Determination of Solubility
# The mimylin peptide was dissolved in water at ˜500 nmol/ml and mixed 1:1 with a series of buffers (100 mM glycylglycine pH 3.0, 100 mM glycylglycine pH 4.0, 100 mM glycylglycine pH 5.0, 100 mM bistrispropane pH 6.0, 100 mM bistrispropane pH 6.5, 100 mM bistrispropane pH 7.0, 100 mM bistrispropane pH 7.5, 100 mM bistrispropane pH 8.0).
Solubility (pH 3.0),Solubility (pH 4.0),Solubility (pH 5.0),Solubility (pH 6.0),Solubility (pH 6.5),Solubility (pH 7.0),Solubility (pH 7.5),Solubility (pH 8.0),solubility at 18 h (pH 4.0),solubility at 18 h (pH 5.0),SMILES
≧200 μM,≧200 μM,≧200 μM,≧200 μM,≧200 μM,≧200 μM,≧200 μM,≧200 μM,,,"CC(C)C[C@H](NC(=O)[C@H](C)NC(=O)[C@H](C)NC(=O)[C@@H](NC(=O)[C@H](CO)NC(=O)[C@H](CC(C)C)NC(=O)[C@H](CCC(=O)O)NC(=O)[C@H](CO)NC(=O)[C@H](C)NC(=O)[C@H](CCC(=O)O)NC(=O)CCCCCCCCCCCCCCCCC(=O)O)[C@@H](C)O)C(=O)NCC(=O)N[C@@H](CCCNC(=N)N)C(=O)N[C@@H](CC(C)C)C(=O)N[C@@H](CO)C(=O)N[C@@H](C)C(=O)N[C@@H](CCC(=O)O)C(=O)N[C@@H](CC(C)C)C(=O)N[C@@H](Cc1cnc[nH]1)C(=O)N[C@@H](CCC(=O)O)C(=O)N[C@@H](CC(C)C)C(=O)N[C@@H](C)C(=O)N[C@H](C(=O)N[C@@H](CC(C)C)C(=O)N1CCC[C@H]1C(=O)N[C@@H](CCCNC(=N)N)C(=O)N[C@H](C(=O)N[C@@H](CCC(=O)O)C(=O)N[C@H](C(=O)NCC(=O)N1CCC[C@H]1C(=O)N[C@@H](CCC(=O)O)C(=O)N[C@@H](Cc1cnc[nH]1)C(=O)N1CCC[C@H]1C(N)=O)[C@@H](C)O)[C@@H](C)O)[C@@H](C)O [compound 18, [N-terminal(C18 diacid), 32H]mimylin] ({C18 diacid}-EASELSTAALGRLSAELHELATLPRTETGPEHP-NH2)"
≧200 μM,≧200 μM,≧200 μM,≧200 μM,≧200 μM,≧200 μM,≧200 μM,≧200 μM,,,"CC(C)C[C@H](NC(=O)[C@H](C)NC(=O)[C@H](C)NC(=O)[C@@H](NC(=O)[C@H](CO)NC(=O)[C@H](CC(C)C)NC(=O)[C@H](CCC(=O)O)NC(=O)[C@H](CO)NC(=O)[C@H](C)NC(=O)CC[C@H](NC(=O)CCCCCCCCCCCCC(=O)O)C(=O)O)[C@@H](C)O)C(=O)NCC(=O)N[C@@H](CCCNC(=N)N)C(=O)N[C@@H](CC(C)C)C(=O)N[C@@H](CO)C(=O)N[C@@H](C)C(=O)N[C@@H](CCC(=O)O)C(=O)N[C@@H](CC(C)C)C(=O)N[C@@H](Cc1cnc[nH]1)C(=O)N[C@@H](CCC(=O)O)C(=O)N[C@@H](CC(C)C)C(=O)N[C@@H](C)C(=O)N[C@H](C(=O)N[C@@H](CC(C)C)C(=O)N1CCC[C@H]1C(=O)N[C@@H](CCCNC(=N)N)C(=O)N[C@H](C(=O)N[C@@H](CCC(=O)O)C(=O)N[C@H](C(=O)NCC(=O)N1CCC[C@H]1C(=O)N[C@@H](CCC(=O)O)C(=O)N[C@@H](CO)C(=O)N1CCC[C@H]1C(N)=O)[C@@H](C)O)[C@@H](C)O)[C@@H](C)O [compound 19, [N-terminal(C14 diacid-gGlu), des1]mimylin] ({C14 diacid-γGlu}-ASELSTAALGRLSAELHELATLPRTETGPESP-NH2)"
≧200 μM,≧200 μM,≧200 μM,≧200 μM,≧200 μM,≧200 μM,≧200 μM,≧200 μM,,,"CC(C)C[C@H](NC(=O)[C@H](C)NC(=O)[C@H](C)NC(=O)[C@@H](NC(=O)[C@H](CO)NC(=O)[C@H](CC(C)C)NC(=O)[C@H](CCC(=O)O)NC(=O)[C@H](CO)NC(=O)[C@H](C)NC(=O)CC[C@H](NC(=O)CCCCCCCCCCCCCCCCC(=O)O)C(=O)O)[C@@H](C)O)C(=O)NCC(=O)N[C@@H](CCCNC(=N)N)C(=O)N[C@@H](CC(C)C)C(=O)N[C@@H](CO)C(=O)N[C@@H](C)C(=O)N[C@@H](CCC(=O)O)C(=O)N[C@@H](CC(C)C)C(=O)N[C@@H](Cc1cnc[nH]1)C(=O)N[C@@H](CCC(=O)O)C(=O)N[C@@H](CC(C)C)C(=O)N[C@@H](C)C(=O)N[C@H](C(=O)N[C@@H](CC(C)C)C(=O)N1CCC[C@H]1C(=O)N[C@@H](CCCNC(=N)N)C(=O)N[C@H](C(=O)N[C@@H](CCC(=O)O)C(=O)N[C@H](C(=O)NCC(=O)N[C@@H](CO)C(=O)N[C@@H](CCC(=O)O)C(=O)N[C@@H](CO)C(=O)N1CCC[C@H]1C(N)=O)[C@@H](C)O)[C@@H](C)O)[C@@H](C)O [compound 23, [N-terminal(C18 diacid-gGlu), des1, 30S]mimylin] ({C18 diacid-γGlu}-ASELSTAALGRLSAELHELATLPRTETGSESP-NH2)"
≧200 μM,,,≧200 μM,≧200 μM,≧200 μM,≧200 μM,≧200 μM,150 µM,145 µM,"CC(C)C[C@H](NC(=O)[C@H](CCC(=O)O)NC(=O)[C@H](Cc1cnc[nH]1)NC(=O)[C@H](CC(C)C)NC(=O)[C@H](CCC(=O)O)NC(=O)[C@H](C)NC(=O)[C@H](CO)NC(=O)[C@H](CC(C)C)NC(=O)[C@H](CCCNC(=N)N)NC(=O)CNC(=O)[C@H](CC(C)C)NC(=O)[C@@H](NC(=O)[C@H](C)NC(=O)[C@@H](NC(=O)[C@H](CO)NC(=O)[C@@H](NC(=O)[C@H](CCC(=O)O)NC(=O)[C@H](CO)NC(=O)[C@H](C)NC(=O)[C@H](CCC(=O)O)NC(=O)CCCCCCCCCCCCCCCCC(=O)O)C(C)C)[C@@H](C)O)C(C)C)C(=O)N[C@@H](C)C(=O)N[C@H](C(=O)N[C@@H](CC(C)C)C(=O)N1CCC[C@H]1C(=O)N[C@@H](CCCNC(=N)N)C(=O)N[C@H](C(=O)N[C@@H](CCC(=O)O)C(=O)N[C@H](C(=O)NCC(=O)N1CCC[C@H]1C(=O)N[C@@H](CCC(=O)O)C(=O)N[C@@H](CO)C(=O)N1CCC[C@H]1C(N)=O)[C@@H](C)O)[C@@H](C)O)[C@@H](C)O [compound 24, [N-terminal(C18 diacid), 5V, 9V]mimylin] ({C18 diacid}-EASEVSTAVLGRLSAELHELATLPRTETGPESP-NH2)"
≧200 μM,≧200 μM,≧200 μM,≧200 μM,≧200 μM,≧200 μM,≧200 μM,≧200 μM,,,"CC(C)C[C@H](NC(=O)[C@H](CCC(=O)O)NC(=O)[C@H](Cc1cnc[nH]1)NC(=O)[C@H](CC(C)C)NC(=O)[C@H](CCC(=O)O)NC(=O)[C@H](C)NC(=O)[C@H](CO)NC(=O)[C@H](CC(C)C)NC(=O)[C@H](CCCNC(=N)N)NC(=O)CNC(=O)[C@H](CC(C)C)NC(=O)[C@@H](NC(=O)[C@H](C)NC(=O)[C@@H](NC(=O)[C@H](CO)NC(=O)[C@H](CC(C)C)NC(=O)[C@H](CCC(=O)O)NC(=O)[C@H](CO)NC(=O)[C@@H]1CCCN1C(=O)[C@H](CCC(=O)O)NC(=O)CCCCCCCCCCCCCCCCC(=O)O)[C@@H](C)O)C(C)C)C(=O)N[C@@H](C)C(=O)N[C@H](C(=O)N[C@@H](CC(C)C)C(=O)N1CCC[C@H]1C(=O)N[C@@H](CCCNC(=N)N)C(=O)N[C@H](C(=O)N[C@@H](CCC(=O)O)C(=O)N[C@H](C(=O)NCC(=O)N1CCC[C@H]1C(=O)N[C@@H](CCC(=O)O)C(=O)N[C@@H](CO)C(=O)N1CCC[C@H]1C(N)=O)[C@@H](C)O)[C@@H](C)O)[C@@H](C)O [compound 28, [N-terminal(C18 diacid), 2P, 9V]mimylin] ({C18 diacid}-EPSELSTAVLGRLSAELHELATLPRTETGPESP-NH2)"
≧200 μM,≧200 μM,≧200 μM,≧200 μM,≧200 μM,≧200 μM,≧200 μM,≧200 μM,,,"CC(C)C[C@H](NC(=O)[C@H](CCC(=O)O)NC(=O)[C@H](Cc1cnc[nH]1)NC(=O)[C@H](CC(C)C)NC(=O)[C@H](CCC(=O)O)NC(=O)[C@H](C)NC(=O)[C@H](CO)NC(=O)[C@H](CC(C)C)NC(=O)[C@H](CCCNC(=N)N)NC(=O)CNC(=O)[C@H](CC(C)C)NC(=O)[C@@H](NC(=O)[C@H](C)NC(=O)[C@@H](NC(=O)[C@H](CO)NC(=O)[C@H](CC(C)C)NC(=O)[C@H](CCC(=O)O)NC(=O)[C@@H]1CCCN1C(=O)[C@H](C)NC(=O)[C@H](CCC(=O)O)NC(=O)CCCCCCCCCCCCCCCCC(=O)O)[C@@H](C)O)C(C)C)C(=O)N[C@@H](C)C(=O)N[C@H](C(=O)N[C@@H](CC(C)C)C(=O)N1CCC[C@H]1C(=O)N[C@@H](CCCNC(=N)N)C(=O)N[C@H](C(=O)N[C@@H](CCC(=O)O)C(=O)N[C@H](C(=O)NCC(=O)N1CCC[C@H]1C(=O)N[C@@H](CCC(=O)O)C(=O)N[C@@H](CO)C(=O)N1CCC[C@H]1C(N)=O)[C@@H](C)O)[C@@H](C)O)[C@@H](C)O [compound 29, [N-terminal(C18 diacid), 3P, 9V]mimylin] ({C18 diacid}-EAPELSTAVLGRLSAELHELATLPRTETGPESP-NH2)"

SMILES,Solubility (pH 3.0),Solubility (pH 4.0),Solubility (pH 5.0),Solubility (pH 6.0),Solubility (pH 6.5),Solubility (pH 7.0),Solubility (pH 7.5),Solubility (pH 8.0),solubility at 18 h (pH 4.0),solubility at 18 h (pH 5.0)
"CC(C)C[C@H](NC(=O)[C@H](C)NC(=O)[C@@H](NC(=O)[C@H](CO)NC(=O)[C@H](CC(C)C)NC(=O)[C@H](CCC(=O)O)NC(=O)[C@H](CO)NC(=O)[C@H](C)NC(=O)[C@H](CCC(=O)O)NC(=O)CCCCCCCCCCCCCCCCC(=O)O)[C@@H](C)O)C(=O)N[C@@H](C)C(=O)NCC(=O)N[C@@H](CCCNC(=N)N)C(=O)N[C@@H](CC(C)C)C(=O)N[C@@H](CO)C(=O)N[C@@H](C)C(=O)N[C@@H](CCC(=O)O)C(=O)N[C@@H](CC(C)C)C(=O)N[C@@H](Cc1cnc[nH]1)C(=O)N[C@@H](CCC(=O)O)C(=O)N[C@@H](CC(C)C)C(=O)N[C@@H](C)C(=O)N[C@H](C(=O)N[C@@H](CC(C)C)C(=O)N1CCC[C@H]1C(=O)N[C@@H](CCCNC(=N)N)C(=O)N[C@H](C(=O)N[C@@H](CCC(=O)O)C(=O)N[C@H](C(=O)NCC(=O)N1CCC[C@H]1C(=O)N[C@@H](CCC(=O)O)C(=O)N[C@@H](CO)C(=O)N1CCC[C@H]1C(N)=O)[C@@H](C)O)[C@@H](C)O)[C@@H](C)O [compound 27, [N-terminal(C18 diacid), 9L, 10A]mimylin] ({C18 diacid}-EASELSTALAGRLSAELHELATLPRTETGPESP-NH2)",≧200 μM,≧200 μM,≧200 μM,≧200 μM,≧200 μM,≧200 μM,≧200 μM,≧200 μM,,
